Assay results: patent publication US9532975B2, “Use of levo-oxiracetam and oxiracetam in preparation of medicines for preventing or treating coma” (CHONGQING RUNZE PHARMACEUTICAL COMPANY LIMITED., priority 2011, dated 2017)

Key:
[1] = system: alcoholic coma mouse model; assay: Alcohol-induced coma in mice, sleep time (duration of loss of righting reflex); type: in vivo; settings: for wake-promoting effect on alcoholism-induced coma (in words): doses of Table 8
Method: • 1. Drugs and reagents: L-Oxiracetam, D-Oxiracetam and racemic oxiracetam; naloxone, purchased from Chongqing Yaoyou Pharmaceutical Co., Ltd.; anhydrous ethanol, purchased from Shanghai Chemical Reagent Co., Ltd. Physiological saline is commercially available. Each solution was freshly prepared. • 2. Preparation of ethanol solution: anhydrous ethanol was diluted with saline to produce 30% ethanol solution, freshly prepared. • 3. Experimental animals: Male mice weighing 18-22 grams were provided by the special committee, Sichuan experimental animal farms (License: SCXK (Chuan) 2008-14). Animal experiments facilities continue to maintain barriers environmental standards. Control of key environmental indicators: the temperature of 20.0-25.0° C., relative humidity of 40-70%. 10-20 air changes/hour, lighting:dark=14 h:10 h. Animals were housed in standard boxes, each box had 5. (B) Experimental Methods
1. Preparation of alcoholic coma mouse model: With reference to the literature (M. E L Yacoubi, C. Ledent, M. parmentier, et al Caffeine reduces hypnotic effects of alcohol through adenosine A2A receptor blockade [J] Neuropharmacology, 2003, 45(7):977-985) modeled the process of 30% ethanol solution intraperitoneally (0.2 ml/10 g).
2. Method of determination of states of consciousness of mouse discriminating: According to the literature (Jeffrey R. Stephens, Rene H. Levy. Effects of valproate and citrulline on ammonium-Induced encephalopathy [J] Epilepsia, 1994,35 (1):164-171) performed the determination of states of consciousness: level 1, reduced activity in the cage; level 2, limb ataxia associated with reduced activity; level 3, scrolled when placed in the bottom of the back of the cage (righting reflex), but could not stand; level 4, back into the cage end position cannot be corrected, but the damage manifested as physical stimulation retraction; level 5, righting reflex (Loss of Righting Reflex, LORR) and the lack of response to noxious stimuli. Level 4, 5, considered animal in a coma.
The 150 animals were randomly divided into 10 groups: model control group (saline only); […]; dextral Oxiracetam up two groups, respectively: 90,180 mg/kg group; L oxiracetam set up three groups, namely: 30 mg/kg, 90 mg/kg and 180 mg/kg group; naloxone group, a dose of 1.5mg/kg. After each group were successfully prepared animal models, random tables grouped righting reflex one minute after tail vein injection. The mice were observed duration of righting reflex, that sleep time. Statistical results: the experimental data with x±sd, said comparison between the groups were analyzed using ANOVA and q test, test level: α=0.05.

[2] = system: ketamine-induced coma in mice; assay: Ketamine-induced coma in mice, duration of loss of righting reflex; type: in vivo, Kunming mice; settings: for Time of Sleep (The duration of reflex action, min): ketamine 120 mg/kg i.p. induced coma
Method: • 1.1 Experimental animal and grouped 150 Kunming mice, male, weight (25.3±1.9) g, provided by the special committee of Sichuan experimental animal farms. (License: SCXK (Chuan) 2008-14). Animal experiments facilities continue to maintain barriers environmental standards. Control of key environmental indicators: the temperature of 20.0-25.0° C., relative humidity of 40-70%. 10-20 air changes/hour, lighting:dark=14 h:10 h. Animals were housed in standard boxes, each box 5.
Mice after three consecutive supine standing for 5 s can not be restored righting reflex recovery after three consecutive sit-stand for the righting reflex. • 1.4 Statistical analysis of data with x±sd was expressed using statistical software SPSS 12.0 for data analysis. The groups were compared using ANOVA, test level: A=0 05. 2. Results

in vivo = assay: in vivo; parameters: species or system Beagle dogs; settings: dog, 50 mg/kg
Method: The study of comparing the pharmacokinetic of the racemic oxiracetam and L-oxiracetam determines the dose orally and intravenously to Beagle dogs for 50 mg/kg.
Take six adult Beagle dogs, the numbers of female and male were equal, which were weighted 10.0±0.5 kg and randomly divided into three groups, and each group were two with same numbers of the male and female. Latin square crossover method was used (see Table 1). Beagle dogs were administered orally and intravenously at a dose of 50 mg/kg. L-oxiracetam samples with 99.3% (optically pure) of purity were used. Each route of administration was performed every week. Animals orally administered were fasted for 12 hours […] continued fasting three hours after administration. Blank blood was taken prior to administration. Blood sample were taken 1 mL from forelimbs vein into heparinized tubes in 0.083, 0.25, 0.5, 0.75, 1.0, 1.5, 2.0, 4.0, 6.0, 8.0, 12.0 and 24.0 hours after oral administration, or taken in 0.083, 0.25, 0.5, 0.75, 1.0, 1.5, 2.0, 4.0, 6.0, 8.0, 12.0 and 24.0 hours after intravenous administration, and centrifuged to obtain plasma. The concentrations of drugs in plasma were determined by LC-MS-MS method. The results in the table below 2-7.

[3] = system: traumatic brain coma in rats; assay: Traumatic brain coma in rats (Feeney method), coma level score; type: in vivo, SD rats; settings: for Remark: animals that survived: 10 animals, 8 h observation, cell wraps: All / survived
[4] = compared with the racemate; cited from earlier work
[5] = both sexes, Beagle, iv, Drug concentrations in plasma
[6] = alcohol-induced coma, 30 mg/kg tail vein injection
[7] = alcohol-induced coma, 180 mg/kg tail vein injection
[8] = traumatic brain coma, 125 mg/kg, levels 1-6 (5 and 6 = coma)
[9] = traumatic brain coma, 1 mg/kg, levels 1-6 (5 and 6 = coma)

For `NC(=O)CN1CC(O)CC1=O` (racemic) [oxiracetam], the “Time of Sleep (The duration of reflex action, min)” value (from here on “Time of Sleep”) ([1]; alcohol-induced coma, 60 mg/kg tail vein injection) was 96.8 ± 12.7 min, the “Time of Sleep” value ([1]; alcohol-induced coma, 150 mg/kg tail vein injection) was 86.1 ± 9.4 min and the “Time of Sleep” value ([1]; alcohol-induced coma, 360 mg/kg tail vein injection) was 65.1 ± 10.2 min. The “wake-promoting effect on alcoholism-induced coma (in words)” value [1] was “certain awaking effect”, the “awaking effect on ketamine-induced coma (in words)” value (from here on “awaking effect”) ([2]; dose range 150-360 mg/kg) was “also had such effect” and the “Time of Sleep” value ([2]; 60 mg/kg) was 21.3 ± 6.7 min. For the same molecule, the “Time of Sleep” value ([2]; 150 mg/kg) was 15.3 ± 6.4 min, the “Time of Sleep” value ([2]; 360 mg/kg) was 14.2 ± 6.2 min and the concentration at 1 h (in vivo; [5]) was 30800 ng/mL. For the same molecule, the concentration at 1.5 h (in vivo; [5]) was 38800 ng/mL, the concentration at 2 h (in vivo; [5]) was 35300 ng/mL and the concentration at 4 h (in vivo; [5]) was 13000 ng/mL. It also gave a concentration at 6 h (in vivo; [5]) of 9350 ng/mL.
For `NC(=O)CN1C[C@H](O)CC1=O` [D-Oxiracetam], the “Time of Sleep” value [1, 6] was 105.3 ± 15.8 min, the “Time of Sleep” value [1, 7] was 98.8 ± 11.6 min and the “wake-promoting effect on alcoholism-induced coma (in words)” value [1] was “basically had no effect”. For the same molecule, the “awaking effect” value ([2]; dose range 30-180 mg/kg) was “no effect”, the “Time of Sleep” value ([2]; 30 mg/kg) was 25.6 ± 8.9 min and the “Time of Sleep” value ([2]; 180 mg/kg) was 22.8 ± 6.5 min.
For `NC(=O)CN1C[C@@H](O)CC1=O` [L-oxiracetam, (S)-4-hydroxy-2-oxo-pyrrolidineacetamide], the “effect of awaking relative to racemic oxiracetam” value ([1]; alcohol-induced coma) was roughly 2 times, the “Time of Sleep” value [1, 6] was 85.8 ± 10.6 min and the “Time of Sleep” value ([1]; alcohol-induced coma, 75 mg/kg tail vein injection) was 63.5 ± 9.8 min. For the same molecule, the “Time of Sleep” value [1, 7] was 48.5 ± 9.1 min, the “wake-promoting effect on alcoholism-induced coma (in words)” value [1] was “obvious” and the “wake-promoting effect on traumatic coma (in words)” value ([3]; 125 mg/kg, after 1 hour) was “significant improvement in awareness”. For the same molecule, the “Remark: animals that survived” value ([3]; traumatic brain coma, 125 mg/kg, 125 mg/kg) was “All”, the “Remark: animals that survived” value ([3]; traumatic brain coma, 125 mg/kg, listed as left oxiracetam, 125 mg/kg) was “no occurrence of an animal died” and the “coma level score, post-traumatic observation point 1 h” value [3, 8] was 5.1 ± 0.88. For the same molecule, the “coma level score, post-traumatic observation point 2 h” value [3, 8] was 3.8 ± 0.78, the “coma level score, post-traumatic observation point 4 h” value [3, 8] was 3.0 ± 0.82 and the “coma level score, post-traumatic observation point 8 h” value [3, 8] was 2.0 ± 0.67. For the same molecule, the “coma level score, post-traumatic observation point 1 h” value ([3]; traumatic brain coma, 125 mg/kg, levels 1-6 (5 and 6 = coma), listed as left oxiracetam) was 5.1, the “awaking effect” value ([2]; dose range 30-180 mg/kg) was “significant awaking effect” and the “Time of Sleep” value ([2]; 30 mg/kg) was 19.6 ± 5.6 min. For the same molecule, the “Time of Sleep” value ([2]; 75 mg/kg) was 15.2 ± 4.9 min, the “Time of Sleep” value ([2]; 180 mg/kg) was 13.8 ± 3.8 min and the “solubility (in words)” value [4] was “significantly better than the racemate”. The “absolute bioavailability estimated through AUC0−∞” value (in vivo) was 65.76±9.12% and the AUC(0-inf) (in vivo; iv) was 243 ± 37.8 µg·h/mL.
For `C=CCN1CC[C@]23c4c5ccc(O)c4O[C@H]2C(=O)CC[C@@]3(O)[C@H]1C5` [Naloxone], the “Time of Sleep” value ([1]; alcohol-induced coma, 1.5 mg/kg tail vein injection) was 60.5 ± 7.8 min, the “wake-promoting effect on traumatic coma (in words)” value ([3]; 1 mg/kg, positive drug) was “good wake-promoting effect” and the “Remark: animals that survived” value ([3]; traumatic brain coma, 1 mg/kg) was “All”. The “coma level score, post-traumatic observation point 1 h” value [3, 9] was 4.4 ± 0.96, the “coma level score, post-traumatic observation point 2 h” value [3, 9] was 3.6 ± 0.84 and the “coma level score, post-traumatic observation point 8 h” value [3, 9] was 1.9 ± 0.88. The “Time of Sleep” value ([2]; 1.5 mg/kg) was 13.5 ± 4.2 min and the “awaking effect” value ([2]; positive reference drug 1.5 mg/kg) was “significant effect”.
